Data: PubChem BioAssay (NCI)
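96-well plates; 48 h exposure; 5 concentrations. Endpoints by linear interpolation between flanking doses. Not reached: highest tested concentration assigned. Abbreviation: GI50, concentration required for 50% inhibition of growth. TGI marks complete inhibition of growth.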

Tested on: PC-3 prostate
Experiment: growth of human tumour cells (NCI), 48 h

| SMILES | TGI [µM] | GI50 [µM] |
| --- | --- | --- |
| CC(O)(C(=O)N(O)c1ccc(Cl)cc1)c1ccc(Cl)cc1 (stereo not drawn) | 73 | – |
| CCOP(=O)(OCC)c1cc(-c2ccccc2)ccc1N | > 100 | – |
| CC1(C)[C@@H]2C[C@H]1c1cnc(-c3ccccn3)cc1[C@H]2C(O)[C@@H]1c2cc(-c3ccccn3)ncc2[C@H]2C[C@@H]1C2(C)C (stereo partly drawn) | 11 | – |
| CC1(C)OC(CCO)CN1C(=O)OCc1ccccc1 (stereo not drawn) | > 100 | – |
| COc1cc2c(cc1OCCCOc1cc3c(cc1OC)C(=O)N1CCC[C@H]1CN3)N=C[C@@H]1CCCN1C2=O | 8.4 | – |
| COc1ccc(N2C(=O)C3c4[nH]c5ccccc5c4C4C(C)CCCC4C3C2=O)cc1 (stereo not drawn) | > 100 | – |
| CCOC(=O)C1=C(C)NC(=O)N([N+](=O)[O-])C1c1ccccc1C(F)(F)F (stereo not drawn) | > 100 | – |
| O=c1c(Cc2ccccc2)c(-c2ccccc2)[nH]n1C1=NCCN1 | > 100 | – |
| Brc1ccc2c(c1)-c1nc3c(cc1CC2)CCc1ccc(Br)cc1-3 | > 100 | – |
| CCOC(=O)Cc1nn2c(=O)cc(C)nc2s1 | > 100 | – |
| COP(=O)(CC(=O)C1OC(OCc2ccccc2)C(OCc2ccccc2)C(OCc2ccccc2)C1OCc1ccccc1)OC (stereo not drawn) | > 100 | – |
| OC(c1ccco1)C(F)(F)c1nc2ccccc2o1 (stereo not drawn) | > 100 | – |
| CCOC1NC(=O)c2ccccc21 (stereo not drawn) | > 100 | – |
| CCN(C(=O)N[C@H](C(=O)N[C@@H](C)C(=O)OC)C(C)C)c1ccccc1 | > 100 | – |
| Cc1cn(C2CC(OC(c3ccccc3)(c3ccccc3)c3ccccc3)C(COC(c3ccccc3)(c3ccccc3)c3ccccc3)O2)c(=O)[nH]c1=O (stereo not drawn) | > 100 | – |
| CCOC(=O)c1ccc(C(=O)/C(C(=O)OC(C)(C)C)=C2\CCCN2C)n1C | > 100 | – |
| Cc1cc2c(cc1Cl)SC(NNc1cnc3ccccc3n1)=NS2(=O)=O | > 100 | – |
| O=C1c2c(c3c4ccc(Br)cc4oc3c3[nH]c4ccccc4c23)C(=O)N1O | > 100 | 1.3 |
| O=[N+]([O-])c1ccc2nc3c(nc2c1)-c1c2ccccc2cc2cccc-3c12 | > 66.6 | – |
| O=CN(O)CC(=O)O | > 100 | – |

| SMILES | TGI [µM] | GI50 [µM] |
| --- | --- | --- |
| COc1ccc(CN2C(=O)C(=O)N(C)C2=O)c2ccccc12 | > 10 | – |
| C(=N/Nc1ccc(-c2nc3ccccc3[nH]2)cc1)/c1c(-c2ccccc2)[nH]c2ccccc12 | 3.92 | – |
| OCC1OC(O[C@H]2CN3[C@H](O)[C@@H](O)[C@H](O)[C@H]3C2O)C(O)C(O)C1O (stereo partly drawn) | > 100 | – |
| CC1OC(n2cc(F)c(=O)[nH]c2=O)C(O[Si](C)(C)C(C)(C)C)C1O[Si](C)(C)C(C)(C)C (stereo not drawn) | 27.3 | – |
| O=S1(=O)c2ccccc2NC(=S)N1c1ccccc1 | > 100 | – |
| COC(=O)C(CCSC)NC(=O)CSc1nnc(COc2ccc(Cl)cc2)n1-c1ccccc1 (stereo not drawn) | 38.4 | – |
| CCOC(=O)c1c(NC(=S)Nc2ccc(C)cc2)sc2c1CCN(C)C2 | > 100 | – |
| Cc1ccc(-n2cc(-c3ccc(Cl)cc3)c3c2N=CN2NC(c4ccco4)=NC32)cc1 (stereo not drawn) | > 100 | – |
| COc1cc(/C=C/c2cc(=O)cc(/C=C/c3ccc(O)c(OC)c3)o2)ccc1O | > 100 | – |
| c1ccc(-c2ccc(N=NN3CCCC3)cc2)cc1 | > 100 | – |
| COn1cc(CO)c2ccccc21 | > 100 | – |
| NNC(=O)c1cccc2c1Oc1ccccc1S2 | > 100 | – |
| CC1=NC(C)(C)N(O)C1(C)C | > 100 | – |
| Cc1cc(C)nc(NS(=O)(=O)c2ccc(Nc3c4ccccc4nc4c(C(=O)NCCO)cccc34)cc2)n1 | > 100 | – |
| COC1OC2COC(C)(C)OC2C2OC(C)(C)OC12 (stereo not drawn) | > 100 | – |
| O=C(NCCCNCCCCNCCCNC(=O)C(F)(F)F)C(F)(F)F | > 100 | – |
| COC(=O)c1sc2ncc3c(c2c1N)CC(C)CC3 (stereo not drawn) | > 100 | – |
| CCOC(=O)c1[nH]c2nc(SC)nc(NC)c2c1N | > 100 | – |
| CC1=CCC[C@H]2[C@](C)(CC3=CC(=O)C4SCCSC4C3=O)[C@@H](C)CC[C@]12C (stereo partly drawn) | 49.4 | – |

Tested on: NCI-H23 lung
Experiment: growth of human tumour cells (NCI), 48 h

| SMILES | TGI [µM] | GI50 [µM] |
| --- | --- | --- |
| CC(O)(C(=O)N(O)c1ccc(Cl)cc1)c1ccc(Cl)cc1 (stereo not drawn) | 59.7 | – |
| CCOP(=O)(OCC)c1cc(-c2ccccc2)ccc1N | > 100 | – |
| CC1(C)[C@@H]2C[C@H]1c1cnc(-c3ccccn3)cc1[C@H]2C(O)[C@@H]1c2cc(-c3ccccn3)ncc2[C@H]2C[C@@H]1C2(C)C (stereo partly drawn) | 2.79 | – |
| CC1(C)OC(CCO)CN1C(=O)OCc1ccccc1 (stereo not drawn) | > 100 | – |
| COc1cc2c(cc1OCCCOc1cc3c(cc1OC)C(=O)N1CCC[C@H]1CN3)N=C[C@@H]1CCCN1C2=O | 0.709 | – |
| COc1ccc(N2C(=O)C3c4[nH]c5ccccc5c4C4C(C)CCCC4C3C2=O)cc1 (stereo not drawn) | > 100 | – |
| CCOC(=O)C1=C(C)NC(=O)N([N+](=O)[O-])C1c1ccccc1C(F)(F)F (stereo not drawn) | > 100 | – |
| O=c1c(Cc2ccccc2)c(-c2ccccc2)[nH]n1C1=NCCN1 | > 100 | – |
| Brc1ccc2c(c1)-c1nc3c(cc1CC2)CCc1ccc(Br)cc1-3 | > 100 | – |
| CCOC(=O)Cc1nn2c(=O)cc(C)nc2s1 | > 100 | – |
| COP(=O)(CC(=O)C1OC(OCc2ccccc2)C(OCc2ccccc2)C(OCc2ccccc2)C1OCc1ccccc1)OC (stereo not drawn) | > 100 | – |
| OC(c1ccco1)C(F)(F)c1nc2ccccc2o1 (stereo not drawn) | > 100 | – |
| CN1c2ccccc2C(=O)NC12CCN(CC1COc3ccccc3O1)CC2 (stereo not drawn) | > 100 | – |
| CCOC1NC(=O)c2ccccc21 (stereo not drawn) | > 100 | – |
| CCN(C(=O)N[C@H](C(=O)N[C@@H](C)C(=O)OC)C(C)C)c1ccccc1 | > 100 | – |
| CCOC(=O)c1ccc(C(=O)/C(C(=O)OC(C)(C)C)=C2\CCCN2C)n1C | > 100 | – |
| Cc1cc2c(cc1Cl)SC(NNc1cnc3ccccc3n1)=NS2(=O)=O | > 100 | – |
| O=C1c2c(c3c4ccc(Br)cc4oc3c3[nH]c4ccccc4c23)C(=O)N1O | 6.39 | 1.75 |
| O=[N+]([O-])c1ccc2nc3c(nc2c1)-c1c2ccccc2cc2cccc-3c12 | 24.5 | – |
| O=CN(O)CC(=O)O | > 100 | – |
| COc1ccc(CN2C(=O)C(=O)N(C)C2=O)c2ccccc12 | > 10 | – |
| C(=N/Nc1ccc(-c2nc3ccccc3[nH]2)cc1)/c1c(-c2ccccc2)[nH]c2ccccc12 | > 100 | – |
| OCC1OC(O[C@H]2CN3[C@H](O)[C@@H](O)[C@H](O)[C@H]3C2O)C(O)C(O)C1O (stereo partly drawn) | > 100 | – |
| CC1OC(n2cc(F)c(=O)[nH]c2=O)C(O[Si](C)(C)C(C)(C)C)C1O[Si](C)(C)C(C)(C)C (stereo not drawn) | 23 | – |
| O=S1(=O)c2ccccc2NC(=S)N1c1ccccc1 | > 100 | – |
| COC(=O)C(CCSC)NC(=O)CSc1nnc(COc2ccc(Cl)cc2)n1-c1ccccc1 (stereo not drawn) | 34.9 | – |
| CCOC(=O)c1c(NC(=S)Nc2ccc(C)cc2)sc2c1CCN(C)C2 | > 100 | – |
